Experimental data taken from paper PMC5811830 (Journal of Clinical Pharmacology, 2017).
Where two headings read alike, the source gives them in different places.

How the values were obtained:
CYP2B6 = settings: higher than clinical concentrations; cited from earlier work
CYP2C8 = settings: higher than clinical concentrations; cited from earlier work
[1] = format: in vivo, human; settings: for AUC0-264 geometric least-squares mean ratio (90%CI) (test/reference) / Cmax geometric least-squares mean ratio (90%CI) (test/reference): with vs without clarithromycin
CYP2C19 = settings: higher than clinical concentrations; cited from earlier work
CYP2D6 = settings: higher than clinical concentrations; cited from earlier work
CYP2C9 = settings: higher than clinical concentrations; cited from earlier work
CYP3A4 = settings: higher than clinical concentrations; cited from earlier work
[2] = humans; cited from earlier work
Period effect analysis = format: in vivo, human; settings: pooled ketoconazole DDI, food effect and relative bioavailability arms
[3] = Treatment-emergent adverse events and on-study deaths in the DDI study arms; format: in vivo, human
P‐glycoprotein (P‐gp) = settings: in vitro data; cited from earlier work
CYP1A2 = settings: higher than clinical concentrations; cited from earlier work
[4] = format: in vivo, human; settings: for Reduction of Cmax in the presence of rifampin: ixazomib 4 mg oral, rifampin 600 mg once daily; for AUC0-last geometric least-squares mean ratio (90%CI) (test/reference) / Cmax geometric least-squares mean ratio (90%CI) (test/reference): with vs without rifampin
[5] = format: in vivo, human; settings: for Cmax geometric least-squares mean ratio (90%CI) (test/reference): with vs without ketoconazole
[6] = clinically relevant exposures; cited from earlier work
intestinal P‐gp = settings: multiple doses of rifampin, duodenal biopsies, Western blotting; cited from earlier work
[7] = cited from earlier work
[8] = Clarithromycin arm (N = 21), cycle 1 only
[9] = Rifampin arm (N = 38), test and reference groups
[10] = test condition: ixazomib 4 mg oral day 8 with rifampin 600 mg once daily, N = 16

SMILES: CC(C)C[C@H](NC(=O)CNC(=O)c1cc(Cl)ccc1Cl)B(O)O [ixazomib]
- Estimated relative contribution of 2B6 to metabolism (CYP2B6): 16%
- Estimated relative contribution of 2C8 to metabolism (CYP2C8): 6%
- Increase in AUC with the strong CYP3A inhibitors ketoconazole and clarithromycin ([1]; observed, ketoconazole and clarithromycin DDI studies): ≤ 11%
- AUC0-264 geometric least-squares mean ratio (90%CI) (test/reference) [1]: 1.11
- Cmax geometric least-squares mean ratio (90%CI) (test/reference) [1]: 0.96
- AUC0-264 geometric least-squares mean ratio (90%CI) (test/reference) ([1]; listed as Ixazomib): 1.11 (0.86‐1.43)
- Cmax geometric least-squares mean ratio (90%CI) (test/reference) ([1]; listed as Ixazomib): 0.96 (0.67‐1.36)
- Estimated relative contribution of 2C19 to metabolism (CYP2C19): 5%
- Estimated relative contribution of 2D6 to metabolism (CYP2D6): 5%
- Estimated relative contribution of 2C9 to metabolism (CYP2C9): < 1%
- Estimated relative contribution of 3A4 to metabolism (CYP3A4): 42%
- Orally administered radiolabeled ixazomib recovered in urine [2]: 62%
- Urinary excretion representing the parent drug [2]: < 3.5%
- Magnitude of the period effect (period 2 AUC vs period 1 AUC), pooled analysis (Period effect analysis): 1.91 fold
- Any AE, n (%) [3, 8]: 16 (76) n (%)
- Any drug-related AE, n (%) [3, 8]: 4 (19) n (%)
- Any drug-related grade ≥3 AE, n (%) [3, 8]: 0 n (%)
- Any drug-related serious AE, n (%) [3, 8]: 0 n (%)
- Any grade ≥3 AE, n (%) [3, 8]: 2 (10) n (%)
- Any serious AE, n (%) [3, 8]: 2 (10) n (%)
- On-study deaths, n (%) [3, 8]: 0 n (%)
- AE leading to discontinuation, n (%) ([3]; Ketoconazole arm (N = 29)): 8 (28) n (%)
- Any AE, n (%) ([3]; Ketoconazole arm (N = 29)): 29 (100) n (%)
- Any drug-related AE, n (%) ([3]; Ketoconazole arm (N = 29)): 27 (93) n (%)
- Any drug-related grade ≥3 AE, n (%) ([3]; Ketoconazole arm (N = 29)): 10 (34) n (%)
- Any drug-related serious AE, n (%) ([3]; Ketoconazole arm (N = 29)): 3 (10) n (%)
- Any grade ≥3 AE, n (%) ([3]; Ketoconazole arm (N = 29)): 18 (62) n (%)
- Any serious AE, n (%) ([3]; Ketoconazole arm (N = 29)): 12 (41) n (%)
- On-study deaths, n (%) ([3]; Ketoconazole arm (N = 29)): 2 (7) n (%)
- AE leading to discontinuation, n (%) [3, 9]: 4 (11) n (%)
- Any AE, n (%) [3, 9]: 37 (97) n (%)
- Any drug-related AE, n (%) [3, 9]: 32 (84) n (%)
- Any drug-related grade ≥3 AE, n (%) [3, 9]: 7 (18) n (%)
- Any drug-related serious AE, n (%) [3, 9]: 2 (5) n (%)
- Any grade ≥3 AE, n (%) [3, 9]: 15 (39) n (%)
- Any serious AE, n (%) [3, 9]: 7 (18) n (%)
- On-study deaths, n (%) [3, 9]: 1 (3) n (%)
- AE leading to discontinuation, n (%) ([3]; Total (N = 88)): 13 (15) n (%)
- Any AE, n (%) ([3]; Total (N = 88)): 82 (93) n (%)
- Any drug-related AE, n (%) ([3]; Total (N = 88)): 63 (72) n (%)
- Any drug-related grade ≥3 AE, n (%) ([3]; Total (N = 88)): 17 (19) n (%)
- Any drug-related serious AE, n (%) ([3]; Total (N = 88)): 5 (6) n (%)
- Any grade ≥3 AE, n (%) ([3]; Total (N = 88)): 35 (40) n (%)
- Any serious AE, n (%) ([3]; Total (N = 88)): 21 (24) n (%)
- On-study deaths, n (%) ([3]; Total (N = 88)): 3 (3) n (%)
- Patients with a study drug-related AE ([3]; across the 3 DDI study arms (N = 88)): 72%
- Patients with study drug-related grade 3 AEs ([3]; across the 3 study arms, 17 patients): 19%
- Patients with grade ≥3 AEs ([3]; across the 3 study arms, 35 patients): 40%
- Study drug-related grade 3 AE: thrombocytopenia ([3]; across the 3 study arms, n = 2): 2%
- Study drug-related grade 3 AE: vomiting ([3]; across the 3 study arms, n = 2): 2%
- Study drug-related grade 3 AE: diarrhea ([3]; across the 3 study arms, n = 3): 3%
- Study drug-related grade 3 AE: nausea ([3]; across the 3 study arms, n = 3): 3%
- Study drug-related grade 3 AE: fatigue ([3]; across the 3 study arms, n = 9): 10%
- Study drug-related AE: weight loss ([3]; across the 3 study arms, n = 10): 11%
- Study drug-related AE: dehydration ([3]; across the 3 study arms, n = 12): 14%
- Study drug-related AE: asthenia ([3]; across the 3 study arms, n = 13): 15%
- Study drug-related AE: decreased appetite ([3]; across the 3 study arms, n = 15): 17%
- P-gp substrate status (P‐glycoprotein (P‐gp)): low‐affinity substrate
- Estimated relative contribution of 1A2 to metabolism (CYP1A2): 26%
- Reduction of Cmax in the presence of rifampin [4]: 54%
- Reduction of Cmax in the presence of rifampin ([4]; listed as Ixazomib): approximately 54%
- Geometric mean AUC0-last, h·ng/mL (%CV) [4, 10]: 232 (50) h·ng/mL
- Geometric mean Cmax, ng/mL (%CV) [4, 10]: 25.7 (50) ng/mL
- Median Tmax, h (range) [4, 10]: 1.45 (0.5‐4.12) h
- AUC0-last geometric least-squares mean ratio (90%CI) (test/reference) [4]: 0.26
- Cmax geometric least-squares mean ratio (90%CI) (test/reference) [4]: 0.46
- AUC0-last geometric least-squares mean ratio (90%CI) (test/reference) ([4]; listed as Ixazomib): 0.26 (0.18‐0.37)
- Cmax geometric least-squares mean ratio (90%CI) (test/reference) ([4]; listed as Ixazomib): 0.46 (0.29‐0.73)
- Geometric mean AUC0-264, h·ng/mL (%CV), not corrected for the period effect ([5]; test condition: ixazomib 2.5 mg oral, period 2 with ketoconazole): 1150 (46) h·ng/mL
- Cmax geometric least-squares mean ratio (90%CI) (test/reference) [5]: 1.01
- Cmax geometric least-squares mean ratio (90%CI) (test/reference) ([5]; listed as Ixazomib): 1.01 (0.78‐1.30)
- Effect on the QTc interval [6]: does not prolong the QTc interval

SMILES: CO[C@H]1/C=C/O[C@@]2(C)Oc3c(C)c(O)c4c(O)c(c(/C=N/N5CCN(C)CC5)c(O)c4c3C2=O)NC(=O)/C(C)=C\C=C\[C@H](C)[C@H](O)[C@@H](C)[C@@H](O)[C@@H](C)[C@H](OC(C)=O)[C@@H]1C [rifampin]
- Assumed increase in intestinal P-gp activity (intestinal P‐gp): 4 fold

SMILES: COc1cc2nccc(Oc3ccc(NC(=O)Nc4cc(C)on4)c(Cl)c3)c2cc1OC [tivozanib]
- Effect of steady-state ketoconazole on tivozanib AUC ([7]; ketoconazole 400 mg/day): did not alter
- Decrease in tivozanib AUC with rifampin ([7]; rifampin 600 mg/day): 53%
